Patent publication US12077503B2, “Substituted cyclic amides and their use as herbicides” (FMC CORPORATION, priority 2015, dated 2024)

Columns and labels:
Format in all cases: in vivo
[1] = system: barnyardgrass (Echinochloa crus-galli); experiment: Test A preemergence; settings: Echinochloa crus-galli, pre-emergence, 240 h
Method in brief: (§1)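 Seeds sprayed preemergence with a directed soil spray, or plants at 2 to 10 cm height and one- to two-leaf stage sprayed postemergence, with test chemicals in a non-phytotoxic solvent mixture containing surfactant, in loam soil–sand blend. Injury rated visually against untreated controls after about 10 d in greenhouse, 0 (no effect) to 100 (complete control).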

[2] = system: ryegrass, Italian (Italian ryegrass, Lolium multiflorum); experiment: Test A preemergence; settings: Lolium multiflorum, pre-emergence, 240 h
Method in brief: as §1

[3] = system: giant foxtail (Setaria faberii); experiment: Test A preemergence; settings: Setaria faberi, pre-emergence, 240 h
Method in brief: as §1

[4] = system: ragweed (common ragweed, Ambrosia elatior); experiment: Test A preemergence; settings: Ambrosia artemisiifolia, pre-emergence, 240 h
Method in brief: as §1

[5] = system: pigweed (Amaranthus retroflexus); experiment: Test A preemergence; settings: Amaranthus retroflexus, pre-emergence, 240 h
Kochia (Kochia scoparia) [6] = experiment: Test A preemergence; settings: Bassia scoparia, pre-emergence, 240 h
Method in brief: as §1

[7] = system: barnyardgrass (Echinochloa crus-galli); experiment: Test B flooded paddy test; settings: Echinochloa crus-galli, Flood, 250 g ai/ha; scale of 0 to 100 where 0 is no effect and 100 is complete control; read-out: Barnyardgrass plant response rating
Method in brief: (§2)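 Flooding to 3 cm over soil accompanied treatment, which consisted of adding compound to the standing water around 2-leaf plants; depth was then maintained. Visual assessment versus controls followed at 13 to 15 d (scale 0–100, 0 meaning no effect).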

[8] = system: ducksalad (Heteranthera limosa); experiment: Test B flooded paddy test; settings: Heteranthera limosa, Flood, 250 g ai/ha; scale of 0 to 100 where 0 is no effect and 100 is complete control; read-out: Ducksalad plant response rating
Method in brief: as §2

[9] = system: sedge, umbrella (small-flower umbrella sedge, Cyperus difformis); experiment: Test B flooded paddy test; settings: Cyperus difformis, 250 g ai/ha, Flood; 0 to 100 scale where 0 is no effect and 100 is complete control; read-out: Sedge, Umbrella plant response rating
Method in brief: as §2

rice (Oryra sativa) = experiment: Test B flooded paddy test; settings: Oryza sativa, Flood, 250 g ai/ha; scale of 0 to 100 where 0 is no effect and 100 is complete control; read-out: Rice plant response rating
Method in brief: as §2

[10] = system: barnyardgrass (Echinochloa crus-galli); experiment: Test A postemergence; settings: Echinochloa crus-galli, post-emergence, 240 h, 125 g ai/ha, Postemergence; visual injury after approximately 10 d; 0 to 100 scale where 0 is no effect and 100 is complete control; read-out: Plant response rating, Barnyardgrass
Method in brief: as §1

[11] = system: Galium (catchweed bedstraw, Galium aparine); experiment: Test A postemergence; settings: Galium, post-emergence, 240 h, 125 g ai/ha, Postemergence; visual injury after approximately 10 d; 0 to 100 scale where 0 is no effect and 100 is complete control; read-out: Plant response rating, Galium
Method in brief: as §1

[12] = system: wheat (Triticum aestivum); experiment: Test A postemergence; settings: Triticum aestivum, post-emergence, 240 h, 125 g ai/ha, Postemergence; visual injury after approximately 10 d; 0 to 100 scale where 0 is no effect and 100 is complete control; read-out: Plant response rating, Wheat
Method in brief: as §1

[13] = system: blackgrass (Alopecurus myosuroides); experiment: Test A postemergence; settings: Alopecurus myosuroides, post-emergence, 240 h, 125 g ai/ha, Postemergence; visual injury after approximately 10 d; 0 to 100 scale where 0 is no effect and 100 is complete control; read-out: Plant response rating, Blackgrass
Method in brief: as §1

[14] = system: ryegrass, Italian (Italian ryegrass, Lolium multiflorum); experiment: Test A postemergence; settings: Lolium multiflorum, post-emergence, 240 h, 125 g ai/ha, Postemergence; visual injury after approximately 10 d; 0 to 100 scale where 0 is no effect and 100 is complete control; read-out: Plant response rating, Ryegrass, Italian
Method in brief: as §1

[15] = system: giant foxtail (Setaria faberii); experiment: Test A postemergence; settings: Setaria faberi, post-emergence, 240 h, 125 g ai/ha, Postemergence; visual injury after approximately 10 d; 0 to 100 scale where 0 is no effect and 100 is complete control; read-out: Plant response rating, Foxtail, Giant
Method in brief: as §1

[16] = system: ragweed (common ragweed, Ambrosia elatior); experiment: Test A postemergence; settings: Ambrosia artemisiifolia, post-emergence, 240 h, 125 g ai/ha, Postemergence; visual injury after approximately 10 d; 0 to 100 scale where 0 is no effect and 100 is complete control; read-out: Plant response rating, Ragweed
Method in brief: as §1

[17] = system: pigweed (Amaranthus retroflexus); experiment: Test A postemergence; settings: Amaranthus retroflexus, post-emergence, 240 h, 125 g ai/ha, Postemergence; visual injury after approximately 10 d; 0 to 100 scale where 0 is no effect and 100 is complete control; read-out: Plant response rating, Pigweed
Method in brief: as §1

corn (Zea mays) = experiment: Test A postemergence; settings: Zea mays, post-emergence, 240 h, 125 g ai/ha, Postemergence; visual injury after approximately 10 d; 0 to 100 scale where 0 is no effect and 100 is complete control
Method in brief: as §1

Kochia (Kochia scoparia) [18] = experiment: Test A postemergence; settings: Bassia scoparia, post-emergence, 240 h, 125 g ai/ha, Postemergence; visual injury after approximately 10 d; 0 to 100 scale where 0 is no effect and 100 is complete control; read-out: Plant response rating, Kochia
Method in brief: as §1

Q: Which results are given for `COc1ccc([C@H]2CN(C)C(=O)[C@@H]2C(=O)Nc2cccc(F)c2F)cc1C(F)(F)F` [Compound 986]?
A: pest or weed control at 125 g/ha ([1]; 125 g ai/ha, Preemergence, visual injury rating after approximately 10 d, read-out: Barnyardgrass plant response rating (0 to 100 scale, 0 is no effect, 100 is complete control)): 90%; pest or weed control at 500 g/ha ([1]; 500 g ai/ha, preemergence, visual injury rating about 10 d after treatment, 0 to 100 scale (0 no effect, 100 complete control), read-out: Barnyardgrass plant response rating): 90%; pest or weed control at 125 g/ha ([2]; 125 g ai/ha, Preemergence, visual injury rating after approximately 10 d, read-out: Ryegrass, Italian plant response rating (0 to 100 scale, 0 is no effect, 100 is complete control)): 60%; pest or weed control at 500 g/ha ([2]; 500 g ai/ha, preemergence, visual injury rating about 10 d after treatment, 0 to 100 scale (0 no effect, 100 complete control), read-out: Ryegrass, Italian plant response rating): 80%; pest or weed control at 125 g/ha ([3]; 125 g ai/ha, Preemergence, visual injury rating after approximately 10 d, read-out: Foxtail, Giant plant response rating (0 to 100 scale, 0 is no effect, 100 is complete control)): 100%; pest or weed control at 500 g/ha ([3]; 500 g ai/ha, preemergence, visual injury rating about 10 d after treatment, 0 to 100 scale (0 no effect, 100 complete control), read-out: Foxtail, Giant plant response rating): 100%; pest or weed control at 125 g/ha ([4]; 125 g ai/ha, Preemergence, visual injury rating after approximately 10 d, read-out: Ragweed plant response rating (0 to 100 scale, 0 is no effect, 100 is complete control)): 50%; pest or weed control at 500 g/ha ([4]; 500 g ai/ha, preemergence, visual injury rating about 10 d after treatment, 0 to 100 scale (0 no effect, 100 complete control), read-out: Ragweed plant response rating): 70%; pest or weed control at 125 g/ha ([5]; 125 g ai/ha, Preemergence, visual injury rating after approximately 10 d, read-out: Pigweed plant response rating (0 to 100 scale, 0 is no effect, 100 is complete control)): 60%; pest or weed control at 500 g/ha ([5]; 500 g ai/ha, preemergence, visual injury rating about 10 d after treatment, 0 to 100 scale (0 no effect, 100 complete control), read-out: Pigweed plant response rating): 70%; pest or weed control at 125 g/ha (Kochia (Kochia scoparia) [6]; 125 g ai/ha, Preemergence, visual injury rating after approximately 10 d, read-out: Kochia plant response rating (0 to 100 scale, 0 is no effect, 100 is complete control)): 30%; pest or weed control at 500 g/ha (Kochia (Kochia scoparia) [6]; 500 g ai/ha, preemergence, visual injury rating about 10 d after treatment, 0 to 100 scale (0 no effect, 100 complete control), read-out: Kochia plant response rating): 70%; pest or weed control at 250 g/ha [7]: 55%; pest or weed control at 250 g/ha [8]: 75%; pest or weed control at 250 g/ha [9]: 0%; pest or weed control at 250 g/ha (rice (Oryra sativa)): 20%; pest or weed control at 125 g/ha [10]: 80%; pest or weed control at 125 g/ha [11]: 30%; plant injury at 125 g/ha [12]: 20%; pest or weed control at 125 g/ha [13]: 40%; pest or weed control at 125 g/ha [14]: 30%; pest or weed control at 125 g/ha [15]: 90%; pest or weed control at 125 g/ha [16]: 0%; pest or weed control at 125 g/ha [17]: 0%; Corn plant response rating (crop injury, 0 = no effect, 100 = complete kill) at 125 g/ha (corn (Zea mays)): 80%; pest or weed control at 125 g/ha (Kochia (Kochia scoparia) [18]): 30%
